In article PMC3197640, “Human Engineered Heart Tissue as a Versatile Tool in Basic Research and Preclinical Toxicology” (PLoS ONE, 2011):
Read-outs that look alike come from different tables or passages of the source.

Key:
[1] = test system: human engineered heart tissue (hEHT); settings: for Threshold concentration at which the compound significantly decreased relaxation velocity / Threshold concentration inducing irregular beating patterns (RR-scatter): human, 30 min
Procedure: Calcium-concentration response curves were established in DMEM, 1% penicillin/streptomycin, 10 mM HEPES, and 100 µM acetylcysteine with calcium concentrations adjusted to the desired final concentration (0.2–3.0 mmol/L). Equilibration time was 20 minutes. Measurements were performed under spontaneous activity by automated video-optical recording and analysis (customized software, Consulting Team Machine Vision) as previously described. Contractile force F was calculated from the degree of post deflection δ (µm), silicone post length (L) and radius (R) and elastic modulus (E) by the formula F = 3πER^4δ/4L^3 [29]. Contraction- and relaxation velocities were calculated as the average maximal steepness of twitch contraction or relaxation, respectively. Each value represents the mean of all measurable contraction twitches in the recording period of 60 seconds per hEHT.
EHTs were equilibrated in DMEM, 1% penicillin/streptomycin, 10 mM HEPES, 100 µM acetylcysteine for one hour. […] Isoprenaline and carbachol were used at 100 nM and 10 µM, respectively.
Intervals between two contractions were determined for all recordings. […] Interval scatter was therefore defined as the length between 10th and 90th percentile (interdecile range, IDR). Statistical difference between groups of biological replicas were determined with Mann-Whitney U Test (*P<0.05).

hERG channel = settings: cited from earlier work
[2] = test system: hESC-derived cardiomyocytes (EBs and EHTs); experiment: Action potential measurements with sharp microelectrodes (zero current clamp); assay type: cell-based, human
[3] = read-out: Published IC50 (hERG), hERG channel assays

CC(C)NCC(O)c1ccc(O)c(O)c1 (centres unmarked) [isoprenaline]
Effect on beating frequency ([1]; hEHT, 100 nM, 0.6 mM calcium): positive chronotropic effect | Effect on force ([1]; hEHT, 100 nM, 0.6 mM calcium): trend towards an increase in force (not significant)

[Ca+2] [calcium]
Decrease in force ([1]; hEHT, lowering calcium from 1.8 mM (baseline) to 0.2 mM): 90%

CCN(CC)CCNC(=O)c1ccc(N)cc1 [Procainamide]
Threshold concentration at which the compound significantly decreased relaxation velocity [1]: 100000 nM | Threshold concentration inducing irregular beating patterns (RR-scatter) [1]: 100000 nM | IC50 (hERG channel; [3]): 139000 nM

C[N+](C)(C)CCOC(N)=O [carbachol]
Effect on isoprenaline-induced changes in frequency and force ([1]; hEHT, 10 µM, after isoprenaline 100 nM, 0.6 mM calcium): reversed

Cc1cccc(CCN2CCC(C(=O)c3ccc(NS(C)(=O)=O)cc3)CC2)n1 [E-4031]
Effect on APD ([2]; 300 nM, P<0.05, n = 4): significant prolongation

COC(=O)C1=C(C)NC(C)=C(C(=O)OCC(C)C)C1c1ccccc1[N+](=O)[O-] (centres unmarked) [nisoldipine]
Effect on electrical activity and contractions ([2]; 1 µM, all spontaneously beating hESC cultures): completely interrupted

NC1=N[C@H](O)[C@H]2[C@H]3O[C@]4(O)O[C@@H]([C@@H](O)[C@@]2(N1)[C@@H]4O)[C@]3(O)CO [tetrodotoxin]
Effect on AP upstroke velocity [2]: significant decrease | Effect on APD80 and diastolic interval [2]: significant prolongation
